# From patent publication US20230257396A1, “MACROCYCLES AND THEIR USE” (BLOSSOMHILL THERAPEUTICS, INC., priority 2020, published 2023)
# Numbering of substitutions follows the chain as printed.
# Legend:
# Test in all cases: KINOMEscan kinase binding assay (Eurofins/DiscoveRx), % Ctrl
# kinases [1] = target: T1, kinases (Homo sapiens, UniProt P36888, R834Q)
# T1 construct: purchased Eurofins/DiscoveRx; host or cells: E. coli BL21-derived host (T7 phage display) for most kinases; HEK-293 for the rest
# T1 sequence (P36888 27-993 R834Q): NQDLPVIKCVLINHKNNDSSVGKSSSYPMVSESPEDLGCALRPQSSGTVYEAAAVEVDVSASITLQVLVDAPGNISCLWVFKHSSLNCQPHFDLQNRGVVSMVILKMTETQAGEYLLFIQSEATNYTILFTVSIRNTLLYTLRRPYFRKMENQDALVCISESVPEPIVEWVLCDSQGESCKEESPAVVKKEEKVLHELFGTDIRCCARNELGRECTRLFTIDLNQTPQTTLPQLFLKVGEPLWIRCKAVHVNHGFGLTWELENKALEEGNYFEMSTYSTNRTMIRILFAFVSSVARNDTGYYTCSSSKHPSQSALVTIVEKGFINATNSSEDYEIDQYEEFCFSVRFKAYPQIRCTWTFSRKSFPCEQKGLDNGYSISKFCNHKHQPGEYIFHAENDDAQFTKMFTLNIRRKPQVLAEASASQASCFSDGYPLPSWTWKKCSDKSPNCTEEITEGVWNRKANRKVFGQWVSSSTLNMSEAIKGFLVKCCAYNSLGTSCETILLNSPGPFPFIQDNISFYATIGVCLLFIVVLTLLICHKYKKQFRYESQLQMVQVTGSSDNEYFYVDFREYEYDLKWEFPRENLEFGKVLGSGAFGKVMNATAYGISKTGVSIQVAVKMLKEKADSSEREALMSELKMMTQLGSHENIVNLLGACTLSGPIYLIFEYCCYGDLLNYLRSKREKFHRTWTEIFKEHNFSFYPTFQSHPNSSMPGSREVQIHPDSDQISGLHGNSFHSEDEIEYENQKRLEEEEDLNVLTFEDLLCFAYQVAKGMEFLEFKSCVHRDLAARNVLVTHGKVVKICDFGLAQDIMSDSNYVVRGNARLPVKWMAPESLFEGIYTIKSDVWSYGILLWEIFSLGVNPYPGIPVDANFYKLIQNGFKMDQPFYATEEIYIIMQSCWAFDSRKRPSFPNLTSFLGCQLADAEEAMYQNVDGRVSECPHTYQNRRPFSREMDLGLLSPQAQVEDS
# Outline: (§1)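 Competition binding, 1 h RT: phage-tagged or HEK-293-expressed DNA-tagged kinase + immobilized ligand + compound. Eluate kinase by qPCR. % Ctrl = (test − positive ctrl)/(negative ctrl − positive ctrl) × 100; lower means stronger binding.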
# kinases [2] = target: T2, kinases (Homo sapiens, UniProt P00519, F317L)
# T2 construct: purchased Eurofins/DiscoveRx; host or cells: E. coli BL21-derived host (T7 phage display) for most kinases; HEK-293 for the rest
# Outline: as §1
# kinases [3] = target: T3, kinases (Homo sapiens, UniProt P36888, K663Q)
# T3 construct: purchased Eurofins/DiscoveRx; host or cells: E. coli BL21-derived host (T7 phage display) for most kinases; HEK-293 for the rest
# T3 sequence (P36888 27-993 K663Q): T1 sequence (P36888 27-993 R834Q) with K637Q, Q808R
# Outline: as §1
# kinases [4] = target: T4, kinases (Homo sapiens, UniProt P10721, T670I/V559D)
# T4 construct: purchased Eurofins/DiscoveRx; host or cells: E. coli BL21-derived host (T7 phage display) for most kinases; HEK-293 for the rest
# Outline: as §1
# kinases [5] = target: T5, kinases (Homo sapiens, UniProt P10721, L576P)
# T5 construct: purchased Eurofins/DiscoveRx; host or cells: E. coli BL21-derived host (T7 phage display) for most kinases; HEK-293 for the rest
# Outline: as §1
# [6] = target ABL1(F317L)-nonphosphorylated; 1 μM
# [7] = target ABL1(F317L)-phosphorylated; 1 μM
# [8] = 1 μM; ABL1(F317L)-nonphosphorylated
# [9] = 1 μM; ABL1(F317L)-phosphorylated
# T2 sequence (P00519 whole entry F317L): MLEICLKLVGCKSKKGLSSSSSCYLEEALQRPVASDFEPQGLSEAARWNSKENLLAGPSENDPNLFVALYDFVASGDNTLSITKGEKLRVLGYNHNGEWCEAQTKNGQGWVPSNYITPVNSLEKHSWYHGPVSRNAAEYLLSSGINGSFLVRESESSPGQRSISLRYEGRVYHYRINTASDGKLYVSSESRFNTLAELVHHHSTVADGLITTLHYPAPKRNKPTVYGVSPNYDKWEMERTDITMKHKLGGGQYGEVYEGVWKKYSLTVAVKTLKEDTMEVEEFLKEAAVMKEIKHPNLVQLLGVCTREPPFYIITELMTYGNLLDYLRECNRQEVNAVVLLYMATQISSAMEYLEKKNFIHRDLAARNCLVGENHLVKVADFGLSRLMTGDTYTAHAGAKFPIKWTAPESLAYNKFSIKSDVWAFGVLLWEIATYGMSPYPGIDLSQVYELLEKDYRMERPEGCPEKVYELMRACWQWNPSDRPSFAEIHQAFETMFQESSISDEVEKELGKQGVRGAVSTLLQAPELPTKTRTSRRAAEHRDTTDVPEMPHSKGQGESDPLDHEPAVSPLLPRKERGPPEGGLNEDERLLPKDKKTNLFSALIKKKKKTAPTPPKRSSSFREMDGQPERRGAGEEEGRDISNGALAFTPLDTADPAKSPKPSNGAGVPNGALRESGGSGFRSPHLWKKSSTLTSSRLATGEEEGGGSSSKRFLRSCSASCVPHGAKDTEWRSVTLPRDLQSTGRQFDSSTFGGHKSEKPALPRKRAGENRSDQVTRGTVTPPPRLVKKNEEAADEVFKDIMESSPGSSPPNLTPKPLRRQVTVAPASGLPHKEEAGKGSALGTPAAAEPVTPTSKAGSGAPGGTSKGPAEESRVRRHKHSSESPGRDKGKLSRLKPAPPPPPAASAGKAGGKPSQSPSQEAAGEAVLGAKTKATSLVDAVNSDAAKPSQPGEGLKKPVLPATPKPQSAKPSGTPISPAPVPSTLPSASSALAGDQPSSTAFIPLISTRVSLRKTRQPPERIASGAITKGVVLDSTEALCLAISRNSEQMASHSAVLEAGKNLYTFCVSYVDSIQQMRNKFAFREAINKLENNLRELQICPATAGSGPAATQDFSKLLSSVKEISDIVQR
# T4 sequence (P10721 26-976 V559D/T670I): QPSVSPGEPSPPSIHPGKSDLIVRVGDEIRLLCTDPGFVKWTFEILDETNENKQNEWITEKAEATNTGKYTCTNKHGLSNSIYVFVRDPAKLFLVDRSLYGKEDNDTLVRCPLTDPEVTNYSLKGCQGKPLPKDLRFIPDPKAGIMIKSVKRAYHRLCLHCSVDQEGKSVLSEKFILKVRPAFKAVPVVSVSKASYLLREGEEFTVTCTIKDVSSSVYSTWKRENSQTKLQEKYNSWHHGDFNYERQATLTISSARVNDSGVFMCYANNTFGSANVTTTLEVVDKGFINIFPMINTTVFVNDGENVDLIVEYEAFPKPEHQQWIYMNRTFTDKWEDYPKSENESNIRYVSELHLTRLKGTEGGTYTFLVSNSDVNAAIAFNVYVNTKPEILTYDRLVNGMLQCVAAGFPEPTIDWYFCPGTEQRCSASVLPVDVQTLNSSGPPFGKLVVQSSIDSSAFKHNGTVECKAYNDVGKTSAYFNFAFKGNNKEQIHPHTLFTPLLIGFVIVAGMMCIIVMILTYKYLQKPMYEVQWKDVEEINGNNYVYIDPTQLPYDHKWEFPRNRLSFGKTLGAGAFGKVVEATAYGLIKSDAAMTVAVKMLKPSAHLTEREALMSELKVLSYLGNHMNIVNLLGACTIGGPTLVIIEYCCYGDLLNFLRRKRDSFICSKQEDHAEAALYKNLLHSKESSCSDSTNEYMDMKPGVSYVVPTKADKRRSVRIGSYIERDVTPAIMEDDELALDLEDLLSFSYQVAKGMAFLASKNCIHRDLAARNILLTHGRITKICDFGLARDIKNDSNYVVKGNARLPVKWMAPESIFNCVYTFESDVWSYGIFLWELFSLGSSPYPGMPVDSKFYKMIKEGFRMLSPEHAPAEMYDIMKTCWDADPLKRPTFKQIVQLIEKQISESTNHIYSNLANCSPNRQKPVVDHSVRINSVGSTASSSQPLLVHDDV
# T5 sequence (P10721 26-976 L576P): as the sequence (P10721 26-976 V559D/T670I) above, with D534V, L551P, I645T counted along it
SMILES,"% Ctrl, FLT3(R834Q) (kinases [1]; target FLT3(R834Q); 1 μM)","% Ctrl, ABL1(F317L)-nonphosphorylated (kinases [2]; [6])","% Ctrl, ABL1(F317L)-phosphorylated (kinases [2]; [7])","% Ctrl, FLT3(K663Q) (kinases [3]; target FLT3(K663Q); 1 μM)","% Ctrl, KIT(V559D, T670I) (kinases [4]; target KIT(V559D, T670I); 1 μM)","% Ctrl, KIT(L576P) (kinases [5]; target KIT(L576P); 1 μM)","% Ctrl, FLT3(R834Q) (kinases [1]; 1 μM; FLT3(R834Q))","% Ctrl, ABL1(F317L)-nonphosphorylated (kinases [2]; [8])","% Ctrl, ABL1(F317L)-phosphorylated (kinases [2]; [9])","% Ctrl, FLT3(K663Q) (kinases [3]; 1 μM; FLT3(K663Q))","% Ctrl, KIT(V559D, T670I) (kinases [4]; 1 μM; KIT(V559D, T670I))","% Ctrl, KIT(L576P) (kinases [5]; 1 μM; KIT(L576P))",also measured
"Cc1nn(C)c2c1-c1ccc3c(c1)/C(=C/c1[nH]ccc1C(=O)N(C)CCCO2)C(=O)N3 [Ex. 150, [3a(4)Z]-9,14,16-trimethyl-10,11,13,14-tetrahydro-2H-1,17-(ethanediylidene)pyrazolo[4,3-m]dipyrrolo[3,2-f:3′,4′-i][1,4]oxazacyclopentadecine-3,8(5H,9H)-dione]",69 % Ctrl,87 % Ctrl,82 % Ctrl,71 % Ctrl,97 % Ctrl,94 % Ctrl,–,–,–,–,–,–,–
"CNC(=O)[C@H]1CN(C)C(=O)c2cc(C)[nH]c2/C=C2\C(=O)Nc3cc(Cl)c(cc32)OCCO1 [Ex. 135, [7R,16a(17)Z]-19-chloro-N,2,5-trimethyl-4,16-dioxo-4,5,6,7,9,10,15,16-octahydro-1H-12,14-(ethanediylidene)dipyrrolo[3,2-i:3′,4′-l][1,4,7]dioxazacyclopentadecine-7-carboxamide]",–,–,–,–,–,–,63 % Ctrl,78 % Ctrl,64 % Ctrl,66 % Ctrl,6.3 % Ctrl,8.5 % Ctrl,–
"Cc1cc2c([nH]1)/C=C1\C(=O)Nc3ccc(nc31)-c1ccccc1OCCCNC2=O [Ex.22, [3a(4)Z]-6-methyl-9,10,11,12-tetrahydro-1,18-(ethanediylidene)dipyrrolo[3,2-g:3′,4′-j][1,5,12]benzoxadiazacyclopentadecine-3,8(2H,5H)-dione]",–,–,–,–,–,–,97 % Ctrl,82 % Ctrl,100 % Ctrl,100 % Ctrl,100 % Ctrl,84 % Ctrl,–
CN1CCSCCOc2cc3c(cc2Cl)NC(=O)/C3=C\c2[nH]ccc2C1=O [Ex. 153],19 % Ctrl,4.3 % Ctrl,18 % Ctrl,1.4 % Ctrl,0.3 % Ctrl,0.1 % Ctrl,–,–,–,–,–,–,–
"Cc1cc2c([nH]1)/C=C1\C(=O)Nc3cc(Cl)c(cc31)OCCO[C@@H](C(=O)N(C)C)CN(C)C2=O [Ex. 137, [7R,16a(17)Z]-19-chloro-N,N,2,5-tetramethyl-4,16-dioxo-4,5,6,7,9,10,15,16-octahydro-1H-12,14-(ethanediylidene)dipyrrolo[3,2-i:3′,4′-l][1,4,7]dioxazacyclopentadecine-7-carboxamide]",–,–,–,–,–,–,65 % Ctrl,76 % Ctrl,67 % Ctrl,69 % Ctrl,27 % Ctrl,39 % Ctrl,–
"Cc1cc2c([nH]1)/C=C1\C(=O)Nc3ccc(cc31)-c1c(noc1C(C)C)COCCN(C)C2=O [Ex. 161, [3a(4)Z]-9-methyl-16-(propan-2-yl)-10,11-dihydro-2H,13H-1,17-(ethanediylidene)[1,2]oxazolo[4,3-m]dipyrrolo[3,2-f:3′,4′-i][1,4]oxazacyclopentadecine-3,8(5H,9H)-dione]",–,–,–,–,–,–,–,–,–,–,–,–,"% Ctrl, FLT3(R834Q) (kinases [1]; 1 μM; target FLT3(R834Q)): 100 % Ctrl; % Ctrl, ABL1(F317L)-nonphosphorylated (kinases [2]; 1 μM; target ABL1(F317L)-nonphosphorylated): 93 % Ctrl; % Ctrl, ABL1(F317L)-phosphorylated (kinases [2]; 1 μM; target ABL1(F317L)-phosphorylated): 94 % Ctrl; % Ctrl, FLT3(K663Q) (kinases [3]; 1 μM; target FLT3(K663Q)): 54 % Ctrl; % Ctrl, KIT(V559D, T670I) (kinases [4]; 1 μM; target KIT(V559D, T670I)): 95 % Ctrl; % Ctrl, KIT(L576P) (kinases [5]; 1 μM; target KIT(L576P)): 100 % Ctrl"

# More lines, main results first:
"% Ctrl, FLT3(R834Q) (kinases [1]; target FLT3(R834Q); 1 μM)","% Ctrl, ABL1(F317L)-nonphosphorylated (kinases [2]; [6])","% Ctrl, ABL1(F317L)-phosphorylated (kinases [2]; [7])","% Ctrl, FLT3(K663Q) (kinases [3]; target FLT3(K663Q); 1 μM)","% Ctrl, KIT(V559D, T670I) (kinases [4]; target KIT(V559D, T670I); 1 μM)","% Ctrl, KIT(L576P) (kinases [5]; target KIT(L576P); 1 μM)","% Ctrl, FLT3(R834Q) (kinases [1]; 1 μM; FLT3(R834Q))","% Ctrl, ABL1(F317L)-nonphosphorylated (kinases [2]; [8])","% Ctrl, ABL1(F317L)-phosphorylated (kinases [2]; [9])","% Ctrl, FLT3(K663Q) (kinases [3]; 1 μM; FLT3(K663Q))","% Ctrl, KIT(V559D, T670I) (kinases [4]; 1 μM; KIT(V559D, T670I))","% Ctrl, KIT(L576P) (kinases [5]; 1 μM; KIT(L576P))",SMILES,also measured
97 % Ctrl,89 % Ctrl,89 % Ctrl,14 % Ctrl,75 % Ctrl,90 % Ctrl,–,–,–,–,–,–,"Cc1cc2c([nH]1)/C=C1\C(=O)Nc3ccc(cc31)-c1c(C)nn(C)c1COCCN(C)C2=O [Ex. 146, [3a(4)Z]-6,9,14,16-tetramethyl-10,11,13,14-tetrahydro-2H-1,17-(ethanediylidene)pyrazolo[4,3-m]dipyrrolo[3,2-f:3′,4′-i][1,4]oxazacyclopentadecine-3,8(5H,9H)-dione]",–
–,–,–,–,–,–,29 % Ctrl,12 % Ctrl,20 % Ctrl,63 % Ctrl,34 % Ctrl,14 % Ctrl,"Cc1cc2c([nH]1)/C=C1\C(=O)Nc3ccc(cc31)OCCOCCN(C)C2=O [Ex.91, [16a(17)Z]-2,5-dimethyl-6,7,9,10-tetrahydro-1H-12,14-(ethanediylidene)dipyrrolo[3,2-i:3′,4′-l][1,4,7]dioxazacyclopentadecine-4,16(5H,15H)-dione]",–
–,–,–,–,–,–,68 % Ctrl,85 % Ctrl,58 % Ctrl,77 % Ctrl,71 % Ctrl,100 % Ctrl,"Cc1cc2c([nH]1)/C=C1\C(=O)Nc3ccc(cc31)-c1c(noc1C)COCCN(C)C2=O [Ex. 128, [3a(4)Z]-6,9,16-trimethyl-1,11-dihydro-2H,13H-1,17-(ethanediylidene)[1,4]oxazolo[4,3-m]dipyrrolo[3,2-f:3′,4′-i][1,4]oxazacyclopentadecine-3,8(5H,9H)-dione]",–
–,–,–,–,–,–,0 % Ctrl,1.7 % Ctrl,0 % Ctrl,4.2 % Ctrl,3.6 % Ctrl,0 % Ctrl,"Cc1cc2c([nH]1)/C=C1\C(=O)Nc3ccc(cc31)-c1cnn(C)c1CN(C)CCN(C)C2=O [Ex. 126, [3a(4)Z]-6,9,12,14-tetramethyl-9,10,11,12,13,14-hexahydro-1,17-(ethanediylidene)pyrazolo[4,3-m]dipyrrolo[3,2-f:3′,4′-i][1,4]diazacyclopentadecine-3,8(2H,5H)-dione]",–
